Results from patent publication US20070036775A1 (priority 2001, published 2007).
Peptide text beside a SMILES is read from it. * marks the point of attachment. Cbz = O=C(OCc1ccccc1)*; CH2F = FC*

Assays:
Hela cells = assay: STS-induced apoptosis in Hela cells, Hoechst staining of apoptotic nuclei; type: cell-based, human; conditions: for percentages of apoptotic cells: Hela cells, one day; for effect on STS-induced apoptosis: HeLa cells transfected with Ku70 construct, 24 hours
Protocol: Hela cells (10^6 cells) were transfected with 0.5 μg pEGFP and 1.0 μg pCMV-2B (Vector), pCMV-2B-Ku70 (Ku70 wt), pCMV-2B-Ku701-535 (Ku701-535), or pCMV-2B-Ku70536-609 (Ku70536-609). One day following transfection, cells were treated with 200 nM STS and the number of apoptotic cells was counted as described in FIG. 1 after 24 hours of STS treatment.
Hela cells (10^6 cells) were treated with 200 nM STS in the absence (STS) or presence of z-VAD-fmk (STS+z-VAD).

HEK293T cells [1] = assay: UVC-irradiation-induced apoptosis in HEK293T cells, Hoechst staining; type: cell-based; conditions: for effect on UVC-irradiation-induced cell death: HEK293T cells transfected with Ku70 construct, 200 J/m^2 UVC, 24 hours
Protocol: HEK293T cells (10^6 cells) were transfected with 0.5 μg PEGFP and 1.0 μg pCMV-2B (Vector), pCMV-2B-Ku70 wt (Ku70 wt), or pCMV-2B-Ku70536-609 (Ku70536-609). One day following transfection, cells were exposed to 200 J/m^2 of UVC-irradiation. After 24 hours, apoptotic cells were counted as described in FIG. 1.
One day following transfection, except in the control group (Control), cells were exposed to UVC-irradiation in the absence (UV or UV+Ku70) or the presence of 50 uM z-VAD-fmk (UV+z-VAD).
HEK293T cells, HeLa cells, and mouse embryonic fibroblasts (MEF) were cultured in DMEM supplemented with 10% fetal bovine serum (FBS).

HEK293T cells [2] = assay: Bax-induced apoptosis in HEK293T cells (pcDNA3-Bax transfection); type: cell-based; conditions: HEK293T cells co-transfected with pcDNA3-Bax and Ku70 construct, 24 hours
Protocol: 10^6 cells were transfected with 1.0 μg of pcDNA3 (Control) or pcDNA3-Bax (Bax) together with 0.5, 1.0, or 2.0 μg of pCMV-2B-Ku70 wt (Ku70 wt) or pcDNA3-Myc-XIAP (XIAP). In “Bax+Vector” group, 1.0 μg pcDNA3-Bax and 2 ug of pCMV-2B were used, respectively (Control and Bax+Vector). All the cells were also co-transfected with 0.5 μg pEGFP for the marking of transfected cells. Apoptosis in the transfected cells was analyzed 24 hours following transfection with Hoechst dye staining of the nucleus as described in Experimental Procedure. […] 10^6 cells were transfected with 1.0 μg pcDNA3-Bax and 2.0 μg pCMV-2B (Bax+Vector), pCMV-2B-Ku70 wt (Bax+Ku70 wt), or pcDNA3-Myc-XIAP (Bax+XIAP). […] Apoptosis in the transfected cells was analyzed at 24 hours (Control) or the indicated time points following transfection. […] After 24 hours, apoptotic cells were counted as described in FIG. 1B. […] The number of apoptotic cells was determined as described in FIG. 1B. […] Apoptosis in the transfected cells was analyzed at the indicated periods following transfection as described in FIG. 1C.
HEK293T cells, HeLa cells, and mouse embryonic fibroblasts (MEF) were cultured in DMEM supplemented with 10% fetal bovine serum (FBS). […] Apoptosis in the transfected cells were analyzed as follows: Plasmid encoding EGFP (0.5 ug of pEGFP) was transfected to all the groups to mark the transfected cells. […]

Bax [3] = biological target: T1, Bax (Homo sapiens, UniProt Q07812); assay: Co-immunoprecipitation of Flag-tagged Ku70 constructs and Bax; type: binding; conditions: HEK293T cells, Flag-tagged constructs, 50 uM z-VAD-fmk, Chaps-based buffer
T1 construct: expressed in transfected cells; host or cells: HEK293T
T1 sequence (Q07812 whole entry): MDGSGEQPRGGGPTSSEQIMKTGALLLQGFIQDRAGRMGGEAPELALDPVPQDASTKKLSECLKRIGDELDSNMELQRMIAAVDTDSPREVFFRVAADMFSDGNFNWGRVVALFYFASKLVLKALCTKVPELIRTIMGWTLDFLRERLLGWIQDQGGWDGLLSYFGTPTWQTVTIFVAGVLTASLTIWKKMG
Protocol: Interaction of Ku70 and Bax. […] (FIG. 4D) Co-immunoprecipitation of Flag-tagged-Ku70 and endogenous Bax. HEK293T cells (10^6 cells) were co-transfected with 1.0 μg pcDNA3-Bax and 1.0 μg pCMV-2B-control vector (Flag-tagged firefly luciferase), pCMV-2B-Ku70 wt (Flag-Ku70 wt), pCMV-2B-Ku701-535 (Flag-Ku701-535), pCMV-2B-Ku70496-609 (Flag-Ku70496-609) or pCMV-2B-Ku70536-609 (Flag-Ku70536-609) in the presence of 50 μM z-VAD-fmk. Co-immunoprecipitation was performed as described in FIG. 4C, and Western blot of Bax was done with anti-human Bax polyclonal antibody.
Immunoprecipitation was performed as follows according to the previous methods (Hsu and Youle, 1998, Matsuyama, 1998a). After precleaning of 600 ul of the sample with 50 ul of Protein G-Sepharose at 4° C. for 1 hour, immunoprecipitations were performed by incubating 200 ul of lysates with 20 ul of Protein G-Sepharose preabsorbed with 2 ug of anti-Bax polyclonal antibody or 2 ug of anti-Ku70 monoclonal antibody at 4° C. for 2 hours. After extensive washing in the buffer, beads were boiled in 40 ul of Laemmli buffer and 20 ul of the eluted proteins were subjected to SDS-PAGE immunoblot analysis.

Du145 cells = assay: Apoptosis in Bax-deficient Du145 cells; type: cell-based, human; conditions: Du145, 200 J/m^2 UVC, 24 hours
Protocol: Du145 cells (10^6 cells) were transfected with 0.5 μg PEGFP and 1.0 μg pCMV-2B (Vector), pcDNA3-Myc-XIAP (XIAP), pCMV-2B-Ku70 wt (Ku70 wt), or pCMV-2B-Ku70536-609 (Ku70536-609). One day following transfection, cells were exposed to 200 J/m^2 of UVC-irradiation. After 24 hours, apoptotic cells were counted as described in FIG. 1.
Apoptosis was induced by pcDNA3-human Bax (Bax-encoding plasmid)-transfection, Staurosporin (STS)-treatment, UVC-irradiation, anti-Fas-antibody-treatment (clone CH11), and human recombinant TRAIL-treatment (BD-Pharmingen). The amount of the plasmids, the concentration of STS, Fas-antibody, and TRAIL, and the energy of UVC-irradiation are as described in the figure legends. Apoptosis in the transfected cells were analyzed as follows: Plasmid encoding EGFP (0.5 ug of pEGFP) was transfected to all the groups to mark the transfected cells. One day following transfection of the plasmids listed in the figure legends or treatment of the cells with staurosporin (STS) or UVC-irradiation, cells were stained with Hoechst dye and cells with apoptotic nuclei were counted in GFP expressing cells under fluorescent microscope as previously reported (Wei, et al., 2001). Each point in the figures showing percentages of apoptosis represents the mean±SE of three experiments.

Bax [4] = assay: Subcellular localization / mitochondrial translocation of Bax (fractionation, Western blot, confocal); type: cell-based; conditions: HeLa cells 200 nM STS; HEK293T cells UVC 200 J/m^2
Protocol: FIG. 6A: Subcellular localization of Bax and Ku70. HeLa cells (10^7 cells) were transfected with 10 μg pCMV-2B (Control, STS,) or pCMV-2B-Ku70 (STS+Ku70). One day following transfection, except in the control group (Control), cells were treated by 200 nM STS (STS). One day after STS-treatment, cells were collected and subcellular fractionation was performed as described in Experimental Procedure. The levels of Ku70 (Ku70) and Bax (Bax) in each fraction were analyzed by Western blotting as described in Experimental Procedure. FoF1 ATP synthase subunit α (F1α) and PCNA (PCNA) were used as markers for mitochondrial and nuclear fractions, respectively. HM stands for “Heavy Membrane” fraction containing mitochondria. […] Cytosol fractions (20 μg protein) were separated by SDS-PAGE and analyzed by Western blotting for Ku70 (anti-Ku70 monoclonal antibody, BD-Pharmingen) and β-Tubulin (anti-β-Tubulin monoclonal antibody, BD-Pharmingen) levels. […] MEFs derived from wild-type (Ku70+/+) or Ku70-knockout mice (Ku70−/−) were analyzed as described in FIG. 6A. […] MEFs derived from wild-type (Ku70+/+) or Ku70-deficient (Ku70−/−) mice were treated with STS (200 nM) and cells were analyzed at indicated various periods after treatment as described in FIG. 6A. […]

Bax [5] = assay: Mitochondrial translocation of Bax after TRAIL treatment in T98-G and Hep3B cells; type: cell-based, human; conditions: T98G and Hep3B, 100 ng/ml TRAIL, 24 hours
Protocol: FIG. 14. […] One day following the transfection, cells were treated by etoposide (20 uM). One day after the addition of etoposide into the culture, cells were collected and subcellular fractionation was performed as described in FIG. 9. […] Bax leveles in the samples of the fractions of the cytosol (“Cytosol”) and the heavy membrane (“HM”) were analyzed by Western blotting (middle and lower panels). […] All cells were also co-transfected with the plasmid encoding Green Fluorescent Protein (GFP) (pEGFP plasmid) for the detection of the transfected cells by GFP expression. One day following the transfection, etoposide (20 uM), cisplatin (20 uM), doxorubicin (1 uM), or TRAIL (100 ng/ml) was added to the culture, and cells were culture for 48 hours. The percentages of apoptotic cells were counted in GFP-expressing cells by staining the nucleus with Hochst-dye on day 1 and 2 of the culture. […] T98-G (glioma cell line) and Hep3B (hepatoma cell line) cells were cultured for 24 hours in the absence (“Control”) or the presence (“TRAIL”) of 100 ng/ml TRAIL. After the culture, cells were collected and subcellular fractionation was performed as described in FIG. 2. The samples of the cytosol fraction (20 ug protein) (“Cytosol”) and the equivalent proportion of heavy membrane fraction (“HM”) were subjected to Western analysis of Bax.

| Molecule | effect on Bax-induced apoptosis (HEK293T cells [2]) | effect on UVC-irradiation-induced cell death (HEK293T cells [1]) | binding to Bax (co-immunoprecipitation) (Bax [3]) | effect on STS-induced apoptosis (Hela cells; 200 nM STS) | also measured |
| --- | --- | --- | --- | --- | --- |
| CN[C@@H]1C[C@H]2O[C@@](C)([C@@H]1OC)n1c3ccccc3c3c4c(c5c6ccccc6n2c5c31)C(=O)NC4 [STS, Staurosporine, reference compound] | – | – | – | – | percentages of apoptotic cells (Hela cells; 200 nM STS, control 3±1%): 49±4% |
| COC(=O)C[C@H](NC(=O)[C@H](C)NC(=O)[C@@H](NC(=O)OCc1ccccc1)C(C)C)C(=O)CF [z-VAD-fmk, reference compound] (Cbz-Val-Ala-Asp(OMe)-CH2F) | – | – | – | – | percentages of apoptotic cells (HEK293T cells [1]; HEK293T cells, UVC 200 J/m^2 in presence of 50 uM z-VAD-fmk, one day, UV alone 42±5%): 9±1%; percentages of apoptotic cells (Hela cells; 200 nM STS in presence of z-VAD-fmk): 11±3% |
| Ku70496-609: Ku70 mutant construct encoding amino acids 496-609 of Ku70, lacking Ku80-binding domain | retained the cytoprotective activities | retained the cytoprotective activities | bound to Bax | retained the cytoprotective activities | – |
| Ku70536-609: Ku70 mutant expressing only the C-terminal 74 amino acids of Ku70 | sufficient to block | sufficient to block | bound to Bax | sufficient to block | effect on UVC-irradiation-induced cell death in Bax-deficient cells (Du145 cells): did not rescue Bax-deficient cells from UVC-irradiation-induced cell death; mitochondrial translocation of Bax induced by STS-treatment or UVC-irradiation (Bax [4]): inhibited Bax relocalization induced by UVC-irradiation |
| TRAIL: cytokine, Tumor Necrosis Factor-Related Apoptosis-Inducing Ligand, human recombinant (protein, UniProt P50591 1-281, looked up) Tumor necrosis factor ligand …: MAMMEVQGGPSLGQTCVLIVIFTVLLQSLCVAVTYVYFTNELKQMQDKYSKSGIACFLKEDDSYWDPNDEESMNSPCWQVKWQLRQLVRKMILRTSEETISTVQEKQQNISPLVRERGPQRVAAHITGTRGRSNTLSSPNSKNEKALGRKINSWESSRSGHSFLSNLHLRNGELVIHEKGFYYIYSQTYFRFQEEIKENTKNDKQMVQYIYKYTSYPDPILLMKSARNSCWSKDAEYGLYSIYQGGIFELKENDRIFVSVTNEHLIDMDHEASFFGAFLVG | – | – | – | – | mitochondrial translocation of Bax (Bax [5]): did not induce the mitochondrial translocation of Bax |
